Patent US6399782B1, “Benzimidazole inhibitors of fructose 1,6-bisphosphatase” (Metabasis Therapeutics, Inc., priority 1997, dated 2002)

Columns and labels:
[1] = target: T1, Glycogen Phosphorylase (rabbit muscle) (Oryctolagus cuniculus, UniProt P00489); experiment: Glycogen phosphorylase selectivity assay; type: biochemical; conditions: for EC50: Table 3 Selectivity, read-out: Glycogen Phosphorylase (act.); for effect on glycogen phosphorylase: result in words
T1 construct: Enzyme (rabbit muscle) was purchased from Sigma; purchased Sigma; host or cells: rabbit muscle
T1 sequence (P00489 2-843 limits assumed): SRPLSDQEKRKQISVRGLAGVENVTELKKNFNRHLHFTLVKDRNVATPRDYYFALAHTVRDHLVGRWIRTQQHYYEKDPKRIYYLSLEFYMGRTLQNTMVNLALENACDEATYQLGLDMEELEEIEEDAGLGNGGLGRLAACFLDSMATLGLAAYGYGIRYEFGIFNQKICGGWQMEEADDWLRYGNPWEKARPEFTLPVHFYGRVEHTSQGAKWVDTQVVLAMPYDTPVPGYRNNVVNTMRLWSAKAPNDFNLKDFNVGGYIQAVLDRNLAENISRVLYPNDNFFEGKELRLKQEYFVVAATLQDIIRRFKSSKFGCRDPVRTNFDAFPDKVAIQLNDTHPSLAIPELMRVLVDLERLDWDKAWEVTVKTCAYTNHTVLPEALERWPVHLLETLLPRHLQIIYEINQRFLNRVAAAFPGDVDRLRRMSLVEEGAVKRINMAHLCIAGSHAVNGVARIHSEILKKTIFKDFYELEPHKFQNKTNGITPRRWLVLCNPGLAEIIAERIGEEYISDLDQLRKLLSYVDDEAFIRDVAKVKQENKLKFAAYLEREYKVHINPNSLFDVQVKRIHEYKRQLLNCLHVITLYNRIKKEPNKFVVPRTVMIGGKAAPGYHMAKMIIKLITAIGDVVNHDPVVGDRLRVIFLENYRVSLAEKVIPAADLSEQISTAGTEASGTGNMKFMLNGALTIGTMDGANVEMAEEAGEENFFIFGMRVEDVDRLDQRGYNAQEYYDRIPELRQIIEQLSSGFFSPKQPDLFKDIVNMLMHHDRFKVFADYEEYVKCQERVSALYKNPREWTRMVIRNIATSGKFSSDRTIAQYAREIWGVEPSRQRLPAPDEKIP
Protocol: (§1) To determine the selectivity of compounds towards FBPase, effects of FBPase inhibitors on 5 key AMP binding enzymes were measured using the assays described below:
Glycogen Phosphorylase: Enzyme (rabbit muscle) was purchased from Sigma. Activity was measured at 37° C. in reactions in which the formation of glucose 1-phosphate was coupled to the reduction of NADP via phosphoglucomutase and glucose 6-phosphate dehydrogenase. Assays were performed on 96-well microtitre plates and were read at 340 nm on a Molecular Devices Microplate Reader. Reaction mixtures consisted of 20 mM imidazole, pH 7.4, 20 mM MgCl2, 150 mM potassium acetate, 5 mM potassium phosphate, 1 mM DTT, 1 mg/ml BSA, 0.1 mM NADP, 1 unit/mL phosphoglucomutase, 1 unit/mL glucose 6-phosphate dehydrogenase, 0.5% glycogen. Test compound concentrations ranged from 1 to 500 μM. Reactions were started by the addition of 17 μg enzyme and were monitored for 20 minutes.

rat hepatocytes = experiment: Inhibition of gluconeogenesis in rat hepatocytes; type: cell-based; conditions: for IC50: Hepatocyte, glucose production from lactate/pyruvate, isolated rat hepatocytes, 1 hour; for inhibition of glucose production in rat hepatocytes (FIG. 4): result in words
Protocol: Hepatocytes were prepared from overnight fasted Sprague-Dawley rats (250-300 g) according to the procedure of Berry and Friend (Berry, M. N., Friend, D. S., 1969, J. Cell. Biol. 43, 506-520) as modified by Groen (Groen, A. K., Sips, H. J., Vervoorn, R. C., Tager, J. M., 1982, Eur. J. Biochem. 122, 87-93). Hepatocytes (75 mg wet weight/mL) were incubated in 1 ml Krebs-bicarbonate buffer containing 10 mM Lactate, 1 mM pyruvate, 1 mg/mL BSA, and test compound concentrations from 1 to 500 μM. Incubations were carried out in a 95% oxygen, 5% carbon dioxide atmosphere in closed, 50-mL Falcon tubes submerged in a rapidly shaking water bath (37° C.). After 1 hour, an aliquot (0.25 mL) was removed, transferred to an Eppendorf tube and centrifuged. 50 μL of supernatant was then assayed for glucose content using a Sigma Glucose Oxidase kit as per the manufacturer's instructions.

Human adenosine kinase = target: T2, Human adenosine kinase (Homo sapiens, UniProt P55263); experiment: Adenosine kinase selectivity assay; type: biochemical; conditions: for IC50: Table 3 Selectivity, read-out: Adenosine Kinase (inh.); for effect on adenosine kinase: result in words
T2 construct: made in house; host or cells: E. coli
Protocol: as §1
Adenosine Kinase: Human adenosine kinase was purified from an E. coli expression system as described by Spychala et al (Spychala, J., Datta, N. S., Takabayashi, K., Datta, M., Fox, I. H., Gribbin, T., and Mitchell, B. S. (1996) Proc. Natl. Acad. Sci. USA 93, 1232-1237). Activity was measured essentially as described by Yamada et at (Yamada, Y., Goto, H., Ogasawara, N. (1988) Biochim. Biophys. Acta 660, 36-43.) with a few minor modifications. Assay mixtures contained 50 mM TRIS-maleate buffer, pH 7.0, 0.1% BSA, 1 mM ATP 1 mM MgCl2, 1.0 μM [U-^14C] adenosine (400-600 mCi/mmol) and varying duplicate concentrations of inhibitor. ^14C-AMP was separated from unreacted ^14C-adenosine by absorption to anion exchange paper (Whatman) and quantified by scintillation counting.

Porcine heart AMPDA = experiment: Adenosine monophosphate deaminase selectivity assay; type: biochemical; conditions: AMP deaminase vs hlFBPase
Protocol: as §1
Adenosine Monophosphate Deaminase: Porcine heart AMPDA was purified essentially as described by Smiley et al. (Smiley, K. L., Jr, Berry, A. J., and Suelter, C. H. (1967) J. Biol. Chem. 242, 2502-2506) through the phosphocellulose step. Inhibition of AMPDA activity was determined at 37° C. in a 0.1 mL assay mixture containing inhibitor, ˜0.005 U AMPDA, 0.1% bovine serum albumin, 10 mM ATP, 250 mM KCl, and 50 mM MOPS at pH 6.5. The concentration of the substrate AMP was varied from 0.125-10.0 mM. Catalysis was initiated by the addition of enzyme to the otherwise complete reaction mixture, and terminated after 5 minutes by injection into an HPLC system. Activities were determined from the amount of IMP formed during 5 minutes.

T2 sequence (P55263 1-345 isoform P55263-2): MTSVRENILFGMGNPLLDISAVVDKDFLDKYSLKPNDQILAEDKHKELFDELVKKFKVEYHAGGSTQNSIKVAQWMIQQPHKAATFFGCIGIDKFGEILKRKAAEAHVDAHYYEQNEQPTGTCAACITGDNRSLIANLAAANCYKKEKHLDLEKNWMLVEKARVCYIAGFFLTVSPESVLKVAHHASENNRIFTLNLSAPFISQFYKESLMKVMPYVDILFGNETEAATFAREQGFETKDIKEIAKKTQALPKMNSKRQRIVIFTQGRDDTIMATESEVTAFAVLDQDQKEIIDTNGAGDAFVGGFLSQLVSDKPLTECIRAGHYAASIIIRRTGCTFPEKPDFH

Row | Structure (SMILES) | EC50 [1] [µM] | activation of glycogen phosphorylase ([1]; concentrations of drug ranging from 5 to […]) | IC50 (rat hepatocytes) [µM] | IC50 (Human adenosine kinase) [µM] | effect on adenosine kinase (Human adenosine kinase) | half-maximal inhibition of AMP deaminase relative to IC50 for FBPase (Porcine heart AMPDA) [fold] | effect on glycogen phosphorylase [1] | inhibition of glucose production in rat hepatocytes (FIG. 4) (rat hepatocytes) | melting point [°C]
1 | CCc1cc(F)c(N)c2nc(-c3ccc(P(=O)(O)O)o3)n(CC(C)C)c12 [Compound 12.64] | > 500 | no activation of the enzyme was observed | 2.5 | – | – | – | – | – | –
2 | CCn1c(-c2ccc(P(=O)(O)O)o2)nc2c(N)cccc21 [Compound 12.1, 4-Amino-1-ethyl-2-[2-(5-phosphono)furanyl]benzimidazole] | > 200 | – | 110 | > 10 | essentially inactive | 42 | essentially inactive | inhibit glucose production in vitro in rat hepatocytes | > 250
3 | Nc1c(F)ccc2c1nc(-c1ccc(P(=O)(O)O)o1)n2CC1CC1 [Compound 12.61, 4-Amino-5-fluoro-1-cyclopropylmethyl-2-(2-phosphono-5-furanyl)benzimidazole] | > 100 | – | 3.3 | > 100 | essentially without effect | ~600 | essentially without effect | inhibit glucose production in vitro in rat hepatocytes | 258 to 260
